target: T1, Recombinant pure human SQSTM1 protein (Homo sapiens, UniProt Q13501); test: Inhibition of IA-Rhodamine labeling of SQSTM1 (gel-based, densitometry); assay type: binding; conditions: 50 μM of test compound (initial screen); 30 min at 37° C., then 100 nM IA-Rhodamine 1 hour; inhibition of target labeling by densitometry
T1 construct: purchased Origene
Method: Recombinant pure human SQSTM1 protein was purchased from Origene. SQSTM1 protein (0.21 μg) was diluted into 50 μL of PBS and 1 μL of either DMSO (vehicle) or covalently acting small molecule (test compound) to achieve the desired concentration. After 30 min. at 37° C., the samples were treated with 100 nM IA-Rhodamine (tetramethylrhodamine-5-iodoacetamide dihydroiodide; Setareh Biotech, 6222, prepared in anhydrous DMSO) for 1 hour at room temperature. Samples were then diluted with 20 μL of 4× reducing Laemmli SDS sample loading buffer (Alfa Aesar) and heated at 90° C. for 5 min. The samples were separated on precast 4-20% Criterion TGX gels (Bio-Rad Laboratories, Inc.). Fluorescent imaging was performed on a ChemiDoc MP instrument (Bio-Rad Laboratories, Inc.), and inhibition of target labeling was assessed by densitometry using ImageJ software. The initial screen was performed using 50 μM of test compound.

T1 sequence (Q13501 whole entry): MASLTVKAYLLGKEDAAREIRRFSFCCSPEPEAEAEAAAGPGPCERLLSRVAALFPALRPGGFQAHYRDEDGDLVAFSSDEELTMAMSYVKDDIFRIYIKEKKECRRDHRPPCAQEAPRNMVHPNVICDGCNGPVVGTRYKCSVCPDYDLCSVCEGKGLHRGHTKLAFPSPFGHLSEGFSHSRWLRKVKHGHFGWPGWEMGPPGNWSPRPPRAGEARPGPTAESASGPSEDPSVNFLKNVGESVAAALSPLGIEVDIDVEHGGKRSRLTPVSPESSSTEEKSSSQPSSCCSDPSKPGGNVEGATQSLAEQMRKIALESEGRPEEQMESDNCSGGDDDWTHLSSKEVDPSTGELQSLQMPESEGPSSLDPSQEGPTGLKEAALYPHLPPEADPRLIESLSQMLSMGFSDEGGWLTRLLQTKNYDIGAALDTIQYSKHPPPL

inhibition at 50 µM [%]	% inhibition	SMILES
36		O=C1CCN(C(=O)CCl)CCC1F (centres unmarked) [Compound 47, 1-(2-chloroacetyl)-5-fluoroazepan-4-one]
33		O=C(CCl)N1CCCSCC1 [Compound 51, 2-chloro-1-(1,4-thiazepan-4-yl)ethanone]
	not active	C[C@H]1CNCCCN1C(=O)CCl [Compound 66, (S)-2-chloro-1-(2-methyl-1,4-diazepan-1-yl)ethanone]
54		CC1CCN(C(=O)CCl)CCC1CNC(=O)OCc1ccccc1 (centres unmarked) [Compound 41, Benzyl ((1-(2-chloroacetyl)-5-methylazepan-4-yl)methyl)carbamate]
52		CCOC(=O)c1ncn2c1CN(C(=O)CCl)CCC2 [Compound 53, Ethyl 8-(2-chloroacetyl)-6,7,8,9-tetrahydro-5H-imidazo[1,5-a][1,4]diazepine-1-carboxylate]
40		O=C(CCl)N1CCCS(=O)(=O)CC1 [Compound 52, 2-chloro-1-(1,1-dioxido-1,4-thiazepan-4-yl)ethanone]
82		CC(C)(C)OC(=O)N1CCCCC2(CCCCN(C(=O)CCl)C2)C1 (centres unmarked) [Compound 58, Tert-butyl 9-(2-chloroacetyl)-2,9-diazaspiro[6.6]tridecane-2-carboxylate]
32		CC1CCN(C(=O)CCl)CCC1=O (centres unmarked) [Compound 42, 1-(2-chloroacetyl)-5-methylazepan-4-one]
31		O=C(NC1CCCN(C(=O)CCl)CC1)OCc1ccccc1 (centres unmarked) [Compound 46, Benzyl (1-(2-chloroacetyl)azepan-4-yl)carbamate]
46		CCOC(=O)c1cnc2n1CCN(C(=O)CCl)CC2 [Compound 54, Ethyl 7-(2-chloroacetyl)-6,7,8,9-tetrahydro-5H-imidazo[1,2-d][1,4]diazepine-3-carboxylate]
7		O=C(CCl)N1CCC(O)C(F)CC1 (centres unmarked) [Compound 48, 2-chloro-1-(4-fluoro-5-hydroxyazepan-1-yl)ethanone]
17		O=C(CCl)N1CCOCC(F)(F)C1 [Compound 50, 2-chloro-1-(6,6-difluoro-1,4-oxazepan-4-yl)ethanone]

Continued, molecule first:

SMILES	inhibition at 50 µM [%]	% inhibition
O=C(CCl)N1CCCCC(F)(F)C1 [Compound 19, 2-chloro-1-(3,3-difluoroazepan-1-yl)ethanone]	83	
COc1ccc(CN(C(=O)CCl)c2nccs2)c(OC)c1 [Compound 1, 2-chloro-N-(2,4-dimethoxybenzyl)-N-(thiazol-2-yl)acetamide]	79	
CC1CCN(C(=O)CCl)CCC1(F)F (centres unmarked) [Compound 40, 2-chloro-1-(4,4-difluoro-5-methylazepan-1-yl)ethanone]		not active
CC1CCCCN(C(=O)CCl)C1 (centres unmarked) [Compound 31, 2-chloro-1-(3-methylazepan-1-yl)ethanone]	39	
CCOC(=O)C1(C)CCCCN(C(=O)CCl)C1 (centres unmarked) [Compound 25, Ethyl 1-(2-chloroacetyl)-3-methylazepane-3-carboxylate]	31	
O=C(CCl)N1CCCCC(O)(CF)C1 (centres unmarked) [Compound 32, 2-chloro-1-(3-(fluoromethyl)-3-hydroxyazepan-1-yl)ethanone]	17	
CC(C)(C)OC(=O)NC1CCCCN(C(=O)CCl)C1 (centres unmarked) [Compound 37, Tert-butyl (1-(2-chloroacetyl)azepan-3-yl)carbamate]	30	
O=C1CC(N(Cc2ccccc2)C(=O)CCl)CN1Cc1ccccc1 (centres unmarked) [Compound 11, N-benzyl-N-(1-benzyl-5-oxo-pyrrolidin-3-yl)-2-chloro-acetamide]	57	
CC1(CNC(=O)OCc2ccccc2)CCCCN(C(=O)CCl)C1 (centres unmarked) [Compound 26, Benzyl ((1-(2-chloroacetyl)-3-methylazepan-3-yl)methyl)carbamate]	70	
O=C(CCl)N(Cc1ccccc1)[C@H]1COC[C@@H]1O [Compound 5, N-benzyl-2-chloro-N-((3S,4R)-4-hydroxytetrahydrofuran-3-yl)acetamide]		25%
COC(=O)c1ccc(CN(C(=O)CCl)C2CCN(C(=O)OC(C)(C)C)CC2)[nH]1 [Compound 9, Tert-butyl 4-(2-chloro-N-((5-(methoxycarbonyl)-1H-pyrrol-2-yl)methyl)acetamido) piperidine-1-carboxylate]	64	
O=C(CCl)N1CCC(F)C(O)(C(F)(F)F)CC1 (centres unmarked) [Compound 24, 2-chloro-1-(5-fluoro-4-hydroxy-4-(trifluoromethyl)azepan-1-yl)ethanone]		not active
O=C(CCl)N(Cc1ccccc1)[C@H]1CCC[C@@H]1O [Compound 4, N-benzyl-2-chloro-N-((1S,2S)-2-hydroxycyclopentyl)acetamide]	18	
COC(=O)N1CCCN(C(=O)CCl)CC1 [Compound 17, Methyl 4-(2-chloroacetyl)-1,4-diazepane-1-carboxylate]	9	
O=C(CCl)N1CCOCC2(CNCCO2)C1 (centres unmarked) [Compound 71, 2-chloro-1-(1,8-dioxa-4,11-diazaspiro[5.6]dodecan-11-yl)ethanone]		not active
O=C(CCl)N(Cc1ccccc1)C1CCCCC1 [Compound 2, N-benzyl-2-chloro-N-cyclohexylacetamide]	50	
CC1CCCN(C(=O)CCl)CC1 (centres unmarked) [Compound 21, 2-chloro-1-(4-methylazepan-1-yl)ethanone]	11	
O=C(CCl)N1CCCC(F)CC1 (centres unmarked) [Compound 20, 2-chloro-1-(4-fluoroazepan-1-yl)ethanone]	9	
O=C(NCC1(F)CCCN(C(=O)CCl)CC1)OCc1ccccc1 (centres unmarked) [Compound 38, Benzyl ((1-(2-chloroacetyl)-4-fluoroazepan-4-yl)methyl)carbamate]	40	
CC1(CNC(=O)OCc2ccccc2)CCCN(C(=O)CCl)CC1 (centres unmarked) [Compound 35, Benzyl ((1-(2-chloroacetyl)-4-methylazepan-4-yl)methyl)carbamate]	17	
CC(C)(C)OC(=O)N1CCC(N(C(=O)CCl)C2CCOCC2)CC1 [Compound 7, Tert-butyl 4-(2-chloro-N-(tetrahydro-2H-pyran-4-yl)acetamido)piperidine-1-carboxylate]	61	

target: Protein SQSTM1 (p62) (Homo sapiens, UniProt Q13501); test: Dose response of Compound 1 and Compound 19 against SQSTM1 (TAMRA fluorescence); assay type: binding; conditions: pre-incubated at 2, 0.5, 0.125 and 0.03 μM, then reactive probe TAMRA; FIG. 1
Method: Protein SQSTM1 (p62) was pre-incubated with either Compound 1 or Compound 19 at concentrations of 2, 0.5, 0.125, and 0.03 μM, followed by addition of the reactive probe 5-carboxytetramethylrhodamine (TAMRA). Measurements were made using TAMRA fluorescence. Silver staining of the protein was used as a protein loading control. Decreasing fluorescence of TAMRA indicates binding of the test compound.

Protein SQSTM1 (p62), sequence (Q13501 whole entry): as above

binding to SQSTM1 (decreasing TAMRA fluorescence)	SMILES
covalently bind to SQSTM1	O=C(CCl)N1CCCCC(F)(F)C1 [Compound 19, 2-chloro-1-(3,3-difluoroazepan-1-yl)ethanone]
covalently bind to SQSTM1	COc1ccc(CN(C(=O)CCl)c2nccs2)c(OC)c1 [Compound 1, 2-chloro-N-(2,4-dimethoxybenzyl)-N-(thiazol-2-yl)acetamide]

From patent publication US20220387411A1, “TARGETED AUTOPHAGY CONJUGATES AND METHODS” (Frontier Medicines Corporation, priority 2019, published 2022)
